Results on 27 molecules are retold here after publication PMC9604066 (International Journal of Molecular Sciences, 2022).

The subject of data set [1] is 17D vaccine strain of YFV. As to conditions: cited from earlier work.
For data set [2], the system named is YFV strain 17D (Stamaril) on Huh-7 cells. Briefly: microbe, parasite or virus in culture. As to conditions: for EC50: Yellow fever virus, Huh-7. Type of data set: cell-based, yellow fever virus.
Data set [3] in a line: physchem.
The nature of data set [4]: in vitro. The note with it: human.
For data set [5], the system named is yellow fever. The note with it: rhesus monkey, in vivo; cited from earlier work.

Values after ≈ are worked out from the molar mass of the structure shown. Bounds are passed on as bounds.

Regarding `C[C@@]1(O)[C@H](O)[C@@H](CO)O[C@H]1n1ccc(N)nc1=O` [2-C-methylcytidine], in data set [1], the EC90 is 0.32 µg/mL (≈ 1.24 µM) and the SI is listed as 141.
`CN1CC(=O)N(c2ccccc2)C1c1cc2cc(Cc3ccc4oc(C5N(C)CC(=O)N5c5ccccc5)cc4c3)ccc2o1` (stereo not drawn) [2a, (2″R,2‴R)-, (2″S,2‴S)-, and meso-(2″R,2‴S)-5,5′-Methylenebis[2-(N-methyl-3″-phenyl-4″-oxo-1″,3″-imidazolidin-2″-yl)benzofuran]] registered an EC50 in data set [2] greater than 133 µM. In data set [3], this molecule returned a logP of 4.75.
Consider `Cc1ccc(N2C(=O)CN(C)C2c2cc3cc(Cc4ccc5oc(C6N(C)CC(=O)N6c6ccc(C)cc6)cc5c4)ccc3o2)cc1` (stereo not drawn) [2b, (2″R,2‴R)-, (2″S,2‴S)-, and meso-(2″R,2‴S)-5,5′-Methylenebis(2-[N-methyl-3″-(4-methylphenyl)-4″-oxo-1″,3″-imidazolidin-2″-yl]benzofuran)], for which, in data set [2], the EC50 is greater than 160 µM.
For `Cc1cccc(N2C(=O)CN(C)C2c2cc3cc(Cc4ccc5oc(C6N(C)CC(=O)N6c6cccc(C)c6C)cc5c4)ccc3o2)c1C` (stereo not drawn) [2c, (2″R,2‴R)-, (2″S,2‴S)-, and meso-(2″R,2‴S)-5,5′-Methylenebis(2-[N-methyl-3″-(2,3-dimethylphenyl)-4″-oxo-1″,3″-imidazolidin-2″-yl]benzofuran)], the concentration giving a half-maximal response (EC50) in data set [2] stood at 6.75 µM. Besides, the CC50 in data set [4] is 41 µM. The same molecule showed a logP in data set [3] of 3.77.
In data set [2], `Cc1ccc(C)c(N2C(=O)CN(C)C2c2cc3cc(Cc4ccc5oc(C6N(C)CC(=O)N6c6cc(C)ccc6C)cc5c4)ccc3o2)c1` (stereo not drawn) [2d, (2″R,2‴R)-, (2″S,2‴S)-, and meso-(2″R,2‴S)-5,5′-Methylenebis(2-[N-methyl-3″-(2,5-dimethylphenyl)-4″-oxo-1″,3″-imidazolidin-2″-yl]benzofuran)] returned an SI of 2.40 and an EC50 of 7.7 µM. The CC50 in data set [4] amounted to 18.5 µM. This molecule had a logP in data set [3] of 4.38.
In turn, `Cc1cc(C)cc(N2C(=O)CN(C)C2c2cc3cc(Cc4ccc5oc(C6N(C)CC(=O)N6c6cc(C)cc(C)c6)cc5c4)ccc3o2)c1` (stereo not drawn) [2e, (2″R,2‴R)-, (2″S,2‴S)-, and meso-(2″R,2‴S)-5,5′-Methylenebis[2-(N-methyl-3″-(3,5-dimethylphenyl)-4″-oxo-1″,3″-imidazolidin-2″-yl)benzofuran]] yielded a concentration giving a half-maximal response (EC50) in data set [2] of 3.54 µM. The molecule also gave a CC50 in data set [4] of 54.1 µM. Also, the logP in data set [3] came out at 4.15.
`COc1ccc(N2C(=O)CN(C)C2c2cc3cc(Cc4ccc5oc(C6N(C)CC(=O)N6c6ccc(OC)cc6)cc5c4)ccc3o2)cc1` (stereo not drawn) [2g, (2″R,2‴R)-, (2″S,2‴S)-, and meso-(2″R,2‴S)-5,5′-Methylenebis(2-[N-methyl-3″-(4-methoxyphenyl)-4″-oxo-1″,3″-imidazolidin-2″-yl]benzofuran)] registered a concentration for a half-maximal effect (EC50) in data set [2] greater than 152 µM. This molecule also returned a lipophilicity (logP) in data set [3] of 4.25.
As for `CN1CC(=O)N(c2ccc(F)cc2)C1c1cc2cc(Cc3ccc4oc(C5N(C)CC(=O)N5c5ccc(F)cc5)cc4c3)ccc2o1` (stereo not drawn) [2h, (2″R,2‴R)-, (2″S,2‴S)-, and meso-(2″R,2‴S)-5,5′-Methylenebi(2-[N-methyl-3″-(4-fluorophenyl)-4″-oxo-1″,3″-imidazolidin-2″-yl]benzofuran)], in data set [2], the SI was determined as 1.63 and the response was half-maximal at 23.5 µM (EC50). Moreover, the CC50 in data set [4] came to 38.5 µM. Besides, in data set [3], the lipophilicity (logP) amounted to 4.6.
On to `CN1CC(=O)N(c2ccc(Cl)cc2)C1c1cc2cc(Cc3ccc4oc(C5N(C)CC(=O)N5c5ccc(Cl)cc5)cc4c3)ccc2o1` (stereo not drawn) [2i, (2″R,2‴R)-, (2″S,2‴S)-, and meso-(2″R,2‴S)-5,5′-Methylenebis(2-[N-methyl-3″-(4-chlorophenyl)-4″-oxo-1″,3″-imidazolidin-2″-yl]benzofuran)], for which, in data set [2], the SI amounted to 0.85 and a half-maximal effect (EC50) was put at 14.4 µM. Moreover, the CC50 in data set [4] stood at 12.3 µM.
As to `CN1CC(=O)N(c2ccc(Br)cc2)C1c1cc2cc(Cc3ccc4oc(C5N(C)CC(=O)N5c5ccc(Br)cc5)cc4c3)ccc2o1` (stereo not drawn) [2j, (2″R,2‴R)-, (2″S,2‴S)-, and meso-(2″R,2‴S)-5,5′-Methylenebis(2-[N-methyl-3″-(4-bromophenyl)-4″-oxo-1″,3″-imidazolidin-2″-yl]benzofuran)], the half-maximal effective concentration (EC50) in data set [2] was greater than 133 µM.
As to `CN1CC(=O)N(c2cccc(C(F)(F)F)c2)C1c1cc2cc(Cc3ccc4oc(C5N(C)CC(=O)N5c5cccc(C(F)(F)F)c5)cc4c3)ccc2o1` (stereo not drawn) [2k, (2″R,2‴R)-, (2″S,2‴S)-, and meso-(2″R,2‴S)-5,5′-Methylenebis(2-[N-methyl-3″-(3-trifluoromethyl)phenyl-4″-oxo-1″,3″-imidazolidin-2″-yl]benzofuran)], in data set [2], it took 8.89 µM to reach a half-maximal effect (EC50). Moreover, the CC50 in data set [4] was 75 µM. In data set [3], this molecule had a log partition coefficient (logP) of 5.16.
Turning to `c1ccc(Cn2c(-c3cc4cc(Cc5ccc6oc(-c7nc8ccccc8n7Cc7ccccc7)cc6c5)ccc4o3)nc3ccccc32)cc1` [3a, 5,5′-Methylenebis[2-(1-benzylbenzimidazol-2-yl)benzofuran]], the EC50 in data set [2] was greater than 114 µM.
With `Cc1ccc(Cn2c(-c3cc4cc(Cc5ccc6oc(-c7nc8ccccc8n7Cc7ccc(C)cc7)cc6c5)ccc4o3)nc3ccccc32)cc1` [3b, 5,5′-Methylenebis(2-[1-(p-methylbenzyl)benzimidazol-2-yl]benzofuran)], in data set [2], the concentration for a half-maximal effect (EC50) was greater than 145 µM.
Turning to `COc1cccc(Cn2c(-c3cc4cc(Cc5ccc6oc(-c7nc8ccccc8n7Cc7cccc(OC)c7)cc6c5)ccc4o3)nc3ccccc32)c1` [3c, 5,5′-Methylenebis(2-[1-(m-methoxybenzyl)benzimidazol-2-yl]benzofuran)], in data set [2], the EC50 was greater than 139 µM.
The molecule `COc1ccc(Cn2c(-c3cc4cc(Cc5ccc6oc(-c7nc8ccccc8n7Cc7ccc(OC)cc7)cc6c5)ccc4o3)nc3ccccc32)cc1` [3d, 5,5′-Methylenebis(2-[1-(p-methoxybenzyl)benzimidazol-2-yl]benzofuran)] came in with a concentration for a half-maximal effect (EC50) in data set [2] of 27.7 µM.
As for `Fc1ccccc1Cn1c(-c2cc3cc(Cc4ccc5oc(-c6nc7ccccc7n6Cc6ccccc6F)cc5c4)ccc3o2)nc2ccccc21` [3e, 5,5′-Methylenebis(2-[1-(o-fluorobenzyl)benzimidazol-2-yl]benzofuran)], the EC50 in data set [2] is greater than 21.5 µM. This molecule also yielded a lipophilicity (logP) in data set [3] of 4.65.
Consider `Fc1ccc(Cn2c(-c3cc4cc(Cc5ccc6oc(-c7nc8ccccc8n7Cc7ccc(F)cc7)cc6c5)ccc4o3)nc3ccccc32)cc1` [3f, 5,5′-Methylenebis(2-[1-(p-fluorobenzyl)benzimidazol-2-yl]benzofuran)], for which the midpoint of the response in data set [2], the EC50, lay at 28.7 µM.
Take `Clc1ccccc1Cn1c(-c2cc3cc(Cc4ccc5oc(-c6nc7ccccc7n6Cc6ccccc6Cl)cc5c4)ccc3o2)nc2ccccc21` [3g, 5,5′-Methylenebis(2-[1-(o-chlorobenzyl)benzimidazol-2-yl]benzofuran)]: the concentration giving a half-maximal response (EC50) in data set [2] was greater than 137 µM.
Consider `Clc1ccc(Cn2c(-c3cc4cc(Cc5ccc6oc(-c7nc8ccccc8n7Cc7ccc(Cl)cc7)cc6c5)ccc4o3)nc3ccccc32)cc1` [3h, 5,5′-Methylenebis(2-[1-(p-chlorobenzyl)benzimidazol-2-yl]benzofuran)], for which the concentration giving a half-maximal response (EC50) in data set [2] was greater than 103 µM.
Turning to `Brc1cccc(Cn2c(-c3cc4cc(Cc5ccc6oc(-c7nc8ccccc8n7Cc7cccc(Br)c7)cc6c5)ccc4o3)nc3ccccc32)c1` [3i, 5,5′-Methylenebis(2-[1-(m-bromobenzyl)benzimidazol-2-yl]benzofuran)], in data set [2], the 50% effective concentration (EC50) was 91.6 µM.
`CC(C)n1c(-c2cc3cc(Cc4ccc5oc(-c6nc7ccccc7n6C(C)C)cc5c4)ccc3o2)nc2ccccc21` [3j, 5,5′-Methylenebis[2-(1-isopropylbenzimidazol-2-yl)benzofuran]] registered a 50% effective concentration (EC50) in data set [2] of 6.14 µM. Moreover, the CC50 in data set [4] stood at 69.3 µM. Also, the lipophilicity (logP) in data set [3] turned out to be 3.71.
Regarding `c1ccc2c(c1)nc(-c1cc3cc(Cc4ccc5oc(-c6nc7ccccc7n6C6CCCC6)cc5c4)ccc3o1)n2C1CCCC1` [3k, 5,5′-Methylenebis[2-(1-cyclopentylbenzimidazol-2-yl)benzofuran]], the 50% effective concentration (EC50) in data set [2] is greater than 162 µM.
`c1ccc2c(c1)nc(-c1cc3cc(Cc4ccc5oc(-c6nc7ccccc7n6C6CCCCC6)cc5c4)ccc3o1)n2C1CCCCC1` [3l, 5,5′-Methylenebis[2-(1-cyclohexylbenzimidazol-2-yl)benzofuran]] had an EC50 in data set [2] greater than 28.7 µM.
For `NC(=O)c1ncn([C@@H]2O[C@H](CO)[C@@H](O)[C@H]2O)n1` [Ribavirin], the survival result in data set [5] is “lack of improved survival”.
Regarding `O=Cc1cc2cc(Cc3ccc4oc(C=O)cc4c3)ccc2o1` [compound 7], in data set [2], the “activity towards YFV” value was “did not exhibit any activity” and the 50% effective concentration (EC50) is greater than 329 µM. The log partition coefficient (logP) in data set [3] came to 3.75.
For `CCOC(=O)c1cc2cc(Cc3ccc4oc(C(=O)OCC)cc4c3)ccc2o1` [compound 10], in data set [2], the “activity towards YFV” value is listed as “did not exhibit any activity” and the concentration giving a half-maximal response (EC50) is greater than 255 µM.
In the case of `O=C(O)c1cc2cc(Cc3ccc4oc(C(=O)O)cc4c3)ccc2o1` [compound 11], in data set [2], the “activity towards YFV” value is “did not exhibit any activity” and the EC50 was greater than 297 µM.

The term EC90 denotes the point of the concentration-response curve where the effect stands at 90%. In general, EC50 refers to the concentration giving half of the maximal effect. As a reminder, the logP is a log measure of how a compound divides between an organic and an aqueous phase. Low readings indicate a more hydrophilic compound, high ones a more lipophilic compound.
